System: Drosophila melanogaster
Assay: Drosophila melanogaster (fruit fly) injection model
Type: in vivo
Conditions: 250 μg/ml; for flies recovering after 24 hours: 24 hours post-injection; for signs of paralysis in injected flies: cohort of 20 age-matched flies
Description: FIG. 17 is a graph showing the results of an experiment to show Drosophila killing by Ece1-III. The percentage of Drosophila death, 24 hours post-infection of 250 μg/ml His-tagged full length Ece1p, Ece1-II (peptide 2) (FIG. 2), and Ece1-III (peptide 3), into a cohort of 20 age-matched flies.
The applicants also determined the effect of administering full length His-tagged Ece1p and Ece1-III in a Drosophila melanogaster (fruit fly) model.

| Compound | flies recovering after 24 hours [%] | signs of paralysis in injected flies |
| --- | --- | --- |
| CC[C@H](C)[C@H](NC(=O)CNC(=O)[C@H](CCSC)NC(=O)[C@@H](NC(=O)[C@@H](NC(=O)CNC(=O)[C@@H](NC(=O)[C@@H](NC(=O)[C@@H](N)CO)[C@@H](C)CC)[C@@H](C)CC)[C@@H](C)CC)[C@@H](C)CC)C(=O)N[C@@H](CC(C)C)C(=O)NCC(=O)N[C@@H](CC(N)=O)C(=O)N[C@H](C(=O)N1CCC[C@H]1C(=O)N[C@@H](CCC(N)=O)C(=O)N[C@H](C(=O)N[C@H](C(=O)N[C@@H](CCC(N)=O)C(=O)N[C@H](C(=O)N[C@H](C(=O)N[C@@H](CCSC)C(=O)N[C@@H](CO)C(=O)N[C@H](C(=O)N[C@H](C(=O)N[C@@H](CCCCN)C(=O)N[C@@H](C)C(=O)N[C@@H](Cc1ccccc1)C(=O)N[C@@H](CCCCN)C(=O)NCC(=O)N[C@@H](CC(N)=O)C(=O)N[C@@H](CCCCN)C(=O)N[C@@H](CCCNC(=N)N)C(=O)O)C(C)C)[C@@H](C)CC)[C@@H](C)CC)[C@@H](C)CC)[C@@H](C)CC)C(C)C)[C@@H](C)CC [Ece1-III] | 10 | displayed signs of paralysis |
| CC[C@H](C)[C@H](NC(=O)[C@H](C)NC(=O)[C@@H](NC(=O)[C@H](CC(N)=O)NC(=O)[C@H](Cc1ccccc1)NC(=O)[C@H](CCC(=O)O)NC(=O)[C@H](CCC(N)=O)NC(=O)[C@@H]1CCCN1C(=O)[C@H](C)NC(=O)[C@@H]1CCCN1C(=O)[C@@H](NC(=O)[C@@H](NC(=O)[C@@H]1CCCN1C(=O)[C@H](C)NC(=O)[C@H](CCC(N)=O)NC(=O)[C@H](CC(=O)O)NC(=O)[C@H](C)NC(=O)[C@@H]1CCCN1C(=O)[C@H](C)NC(=O)[C@H](C)NC(=O)[C@@H]1CCCN1C(=O)[C@H](C)NC(=O)[C@H](C)NC(=O)[C@@H]1CCCN1C(=O)[C@H](C)NC(=O)[C@@H](NC(=O)[C@@H](N)CC(=O)O)C(C)C)[C@@H](C)O)C(C)C)[C@@H](C)O)C(=O)N[C@H](C(=O)N[C@@H](CCCCN)C(=O)N[C@@H](CCCNC(=N)N)C(=O)O)[C@@H](C)O [Ece1-II] |  | no signs of paralysis |
| full length His-tagged Ece1p: His-tagged full length Ece1 protein of C. albicans | 17.5 | displayed signs of paralysis |

Reference: patent US9969796B2, “Peptides and binding partners therefor” (priority 2013, dated 2018)
